Experiments:
[1] = target: T1, PSMA (Homo sapiens, UniProt Q04609); test: In vitro binding signals of 68Ga labeled ligands in LNCaP tumor homogenates; details: Ga-68 radiolabeled ligands; for Total binding (TB): 37° C. 60 min; for Nonspecific binding (NSB): with 1a (PSMA11) 10 μM
T1 construct: 100 μL of freshly harvested PSMA cells; endogenous in cells; host or cells: 'PSMA cells' in the method

[2] = target: T1, PSMA; test: In vitro competitive binding assay to determine IC50 to PSMA; details: LNCaP cells, [125I]MIP-1095 radioligand, 37° C. 1 h, mean±SD (n=4); read-out: PSMA binding affinities of cold ligands, IC50
Method: In Vitro Competitive Binding Assay to Determine IC50 to PSMA
In order to determine the binding affinity, in vitro competitive binding assays were performed. The LNCaP cells were incubated with 150,000 cpm of [^125I]MIP-1095 in the presence of 10 different concentrations of competing drugs. After incubation at 37° C. for 1 h, the bound and free radioactivity were separated by vacuum filtration through GF/B filter paper using a Brandel M-24R cell harvester followed by washing twice. Non-specific binding was defined with 10 μM PMPA. The cell bound radioactivity was measured with a gamma counter, 2470 Wizard^2 (Perkin-Elmer, IL). The IC50 values were calculated by fitting the data using a nonlinear regression algorithm (GraphPad Software).
The PSMA binding affinities were determined in a competitive binding assay using LNCaP human prostate carcinoma cells and the known high affinity PSMA ligand, [^125I]MIP-1095 as the radioligand. Data are expressed as mean±SD (n=4).

T1 sequence (Q04609 whole entry): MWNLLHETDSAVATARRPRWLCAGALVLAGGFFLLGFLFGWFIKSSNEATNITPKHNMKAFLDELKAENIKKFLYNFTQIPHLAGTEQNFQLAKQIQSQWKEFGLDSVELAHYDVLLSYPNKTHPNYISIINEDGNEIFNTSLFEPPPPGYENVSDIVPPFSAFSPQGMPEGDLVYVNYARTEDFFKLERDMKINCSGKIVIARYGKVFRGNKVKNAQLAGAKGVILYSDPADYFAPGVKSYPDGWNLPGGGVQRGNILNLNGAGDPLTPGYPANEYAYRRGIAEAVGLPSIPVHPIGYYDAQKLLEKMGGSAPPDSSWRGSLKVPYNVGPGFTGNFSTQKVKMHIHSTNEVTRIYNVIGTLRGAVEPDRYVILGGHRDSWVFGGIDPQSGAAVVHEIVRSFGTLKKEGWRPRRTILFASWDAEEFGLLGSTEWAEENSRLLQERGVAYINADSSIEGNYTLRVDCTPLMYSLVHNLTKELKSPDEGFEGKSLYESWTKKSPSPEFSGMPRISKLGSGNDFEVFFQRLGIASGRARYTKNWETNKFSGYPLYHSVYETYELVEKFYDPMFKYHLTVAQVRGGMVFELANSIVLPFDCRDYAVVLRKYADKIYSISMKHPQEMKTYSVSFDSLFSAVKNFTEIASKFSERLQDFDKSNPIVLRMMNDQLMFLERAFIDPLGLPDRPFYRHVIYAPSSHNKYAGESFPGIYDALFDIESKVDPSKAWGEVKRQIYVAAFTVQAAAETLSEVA

`O=C(O)CC[C@H](NC(=O)N[C@@H](CCCCNC(=O)CCCCCNC(=O)CCc1ccc(O)c(CN(CCN(CC(=O)O)Cc2cc(CCC(=O)NCC(=O)O)ccc2O)CC(=O)O)c1)C(=O)O)C(=O)O` [Compound 1c, (3S,7S)-22-(3-(((Carboxymethyl)(2-((carboxymethyl)(5-(3-((carboxymethyl)amino)-3-oxopropyl)-2-hydroxybenzyl)amino)ethyl)amino)methyl)-4-hydroxyphenyl)-5,13,20-trioxo-4,6,12,19-tetraazadocosane-1,3,7-tricarboxylic acid] was tested, and the “Specific binding (SB) SB = TB − NSB” value [1] was 11.8, the “Total binding (TB)” value [1] was 13.4 and the “Nonspecific binding (NSB)” value [1] was 1.6. For the same compound, the IC50 [2] was 25.6 ± 9.4 nM.
In the case of `O=C(O)CCc1ccc(O)c(CN(CCN(CC(=O)O)Cc2cc(CCC(=O)NCCCCCC(=O)NCCCC[C@H](NC(=O)N[C@@H](CCC(=O)O)C(=O)O)C(=O)O)ccc2O)CC(=O)O)n1` [Compound 4a, (3S,7S)-22-(3-(((2-(((6-(2-Carboxyethyl)-3-hydroxypyridin-2-yl)methyl)(carboxymethyl)amino)ethyl)(carboxymethyl)amino)methyl)-4-hydroxyphenyl)-5,13,20-trioxo-4,6,12,19-tetraazadocosane-1,3,7-tricarboxylic acid], the “Specific binding (SB) SB = TB − NSB” value [1] is reported as 12.0, the “Total binding (TB)” value [1] is reported as 13.4 and the “Nonspecific binding (NSB)” value [1] is reported as 1.4. The IC50 [2] was 67.4 ± 30.3 nM.
For `O=C(O)CC[C@H](NC(=O)N[C@@H](CCCCNC(=O)CCCCCNC(=O)CCc1ccc(O)c(CN(CCN(CC(=O)O)Cc2cc(CCC(=O)N[C@H]3C(O)O[C@H](CO)[C@@H](O)[C@@H]3O)ccc2O)CC(=O)O)c1)C(=O)O)C(=O)O` (stereo partly drawn) [Compound 1b, (3S,7S)-22-(3-(((Carboxymethyl)(2-((carboxymethyl)(2-hydroxy-5-(3-oxo-3-(((3R,4R,5S,6R)-2,4,5-trihydroxy-6-(hydroxymethyl)tetrahydro-2H-pyran-3-yl)amino)propyl)benzyl)amino)ethyl)amino)methyl)-4-hydroxyphenyl)-5,13,20-trioxo-4,6,12,19-tetraazadocosane-1,3,7-tricarboxylic acid], the “Specific binding (SB) SB = TB − NSB” value [1] was 8.8, the “Total binding (TB)” value [1] was 10.8 and the “Nonspecific binding (NSB)” value [1] was 2.0. It also gave an IC50 [2] of 53.3 ± 30.9 nM.
For `O=C(O)CC[C@H](NC(=O)CCc1ccc(O)c(CN(CCN(CC(=O)O)Cc2cc(CCC(=O)NCCCCCC(=O)NCCCC[C@H](NC(=O)N[C@@H](CCC(=O)O)C(=O)O)C(=O)O)ccc2O)CC(=O)O)c1)C(=O)O` [Compound 1f, (3S,7S)-22-(3-(((Carboxymethyl)(2-((carboxymethyl)(5-(3-(((S)-1,3-dicarboxypropyl)amino)-3-oxopropyl)-2-hydroxybenzyl)amino)ethyl)amino)methyl)-4-hydroxyphenyl)-5,13,20-trioxo-4,6,12,19-tetraazadocosane-1,3,7-tricarboxylic acid], the “Specific binding (SB) SB = TB − NSB” value [1] was 12.0, the “Total binding (TB)” value [1] was 13.5 and the “Nonspecific binding (NSB)” value [1] was 1.5. The IC50 [2] was 37.2 ± 18.6 nM.
In the case of `O=C(O)CCc1ccc(O)c(CN(CCN(CC(=O)O)Cc2nc(CCC(=O)NCCCCCC(=O)NCCCC[C@H](NC(=O)N[C@@H](CCC(=O)O)C(=O)O)C(=O)O)ccc2O)CC(=O)O)c1` [Compound 4b, (3S,7S)-22-(6-(((2-((5-(2-Carboxyethyl)-2-hydroxybenzyl)(carboxymethyl)amino)ethyl) (carboxymethyl)amino)methyl)-5-hydroxypyridin-2-yl)-5,13,20-trioxo-4,6,12,19-tetraazadocosane-1,3,7-tricarboxylic acid], the “Specific binding (SB) SB = TB − NSB” value [1] is reported as 8.8, the “Total binding (TB)” value [1] is reported as 10.3 and the “Nonspecific binding (NSB)” value [1] is reported as 1.5. The IC50 [2] was 40.5 ± 20.5 nM.

Reference: US10688200B2, “Urea-based prostate specific membrane antigen (PSMA) inhibitors for imaging and therapy” (Five Eleven Pharma Inc., priority 2015, dated 2020)
